In paper PMC10763615, “Identification and engineering of potent cyclic peptides with selective or promiscuous binding through biochemical profiling and bioinformatic data analysis” (RSC Chemical Biology, 2023):
Positions of bridges follow the written chain, without caps; N, C: chain ends. Residues, ends and D or L forms follow the SMILES beside them.

Legend:
Format in all cases: binding
FGF-R4 ECD = molecular target: T1, FGF-R4 ECD (Homo sapiens, UniProt P22455); experiment: single concentration BLI of crude peptides; settings: crude T18 selection 1 (1:1:1) peptides, single concentration BLI (Table S4); read-out: KD (4)
T1 construct: DNA constructs for the extracellular domain (ECD) of human FGF-; HPC4 (C); made in house; host or cells: HEK 293-6E
T1 sequence (P22455 22-369 limits assumed): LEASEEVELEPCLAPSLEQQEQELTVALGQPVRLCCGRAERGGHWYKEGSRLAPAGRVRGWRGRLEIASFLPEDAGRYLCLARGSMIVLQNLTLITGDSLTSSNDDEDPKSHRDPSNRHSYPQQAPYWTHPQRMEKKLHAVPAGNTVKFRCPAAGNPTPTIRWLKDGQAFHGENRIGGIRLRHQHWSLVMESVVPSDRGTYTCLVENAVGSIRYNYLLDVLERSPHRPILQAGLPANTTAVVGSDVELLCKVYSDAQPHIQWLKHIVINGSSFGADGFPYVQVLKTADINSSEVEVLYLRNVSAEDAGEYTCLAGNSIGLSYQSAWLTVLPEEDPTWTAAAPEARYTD
Protocol: (§1) KD affinity binding measurements were obtained by biolayer interferometry (BLI) instruments (Fortebio Octet HTX, or Sartorius Octet RH16 using either 8 or 16 channel mode.
For single concentration binding experiments, 50 μM peptide stocks in folding buffer were diluted 1:50 in mRNA display selection buffer (PBS pH7.4 supplemented with 0.05% Tween-20 and 0.01% BSA) in either a 96 well black plate, or a 384 well tilted bottom microplate (ForteBio). Biotinylated FGF-R protein was loaded onto Streptavidin-functionalised biosensors (ForteBio) and immersed into ~1 μM peptide to obtain association kinetics curves. Dissociation kinetics curves were obtained by subsequent immersion of ligand-associated loaded sensors into a 1:50 dilution of folding buffer in mRNA display selection buffer. Fitted KD data was adjusted for concentration as determined by UPLC-CAD. […]

FGF-R1C ECD = molecular target: T2, FGF-R1C ECD (Homo sapiens, UniProt P11362); experiment: biochemical; design: DNA constructs for the extracellular domain (ECD) of human FGF-; HPC4 (C); made in house; host or cells: HEK 293-6E
T2 sequence (P11362 22-376 limits assumed): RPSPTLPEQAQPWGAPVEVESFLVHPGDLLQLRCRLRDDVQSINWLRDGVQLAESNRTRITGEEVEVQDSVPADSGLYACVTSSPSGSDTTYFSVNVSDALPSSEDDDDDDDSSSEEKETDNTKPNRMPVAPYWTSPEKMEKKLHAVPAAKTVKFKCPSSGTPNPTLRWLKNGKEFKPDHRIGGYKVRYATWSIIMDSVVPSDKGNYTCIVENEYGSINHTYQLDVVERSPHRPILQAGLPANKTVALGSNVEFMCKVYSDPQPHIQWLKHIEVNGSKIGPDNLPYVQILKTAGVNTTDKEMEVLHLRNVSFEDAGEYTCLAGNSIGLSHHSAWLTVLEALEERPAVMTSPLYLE
Protocol: as §1
(§2) For single concentration binding experiments, 50 μM peptide stocks in folding buffer were diluted 1:50 in mRNA display selection buffer (PBS pH7.4 supplemented with 0.05% Tween-20 and 0.01% BSA) in either a 96 well black plate, or a 384 well tilted bottom microplate (ForteBio). Biotinylated FGF-R protein was loaded onto Streptavidin-functionalised biosensors (ForteBio) and immersed into ~1 μM peptide to obtain association kinetics curves. Dissociation kinetics curves were obtained by subsequent immersion of ligand-associated loaded sensors into a 1:50 dilution of folding buffer in mRNA display selection buffer. Fitted KD data was adjusted for concentration as determined by UPLC-CAD.
(§3) For accurate multi-concentration KD determination, dilution series of each peptide were made, and association and dissociation kinetics curves were obtained as above for each concentration to fit a multi-point KD binding model. Data collection and analysis was performed using the Octet Instrument Control […]
(§4) concentration assay kinetics curves shown in supplementary Figure S 19-24.

FGF-R3C ECD = molecular target: T3, FGF-R3C ECD (Homo sapiens, UniProt P22607); experiment: biochemical; design: DNA constructs for the extracellular domain (ECD) of human FGF-; HPC4 (C); made in house; host or cells: HEK 293-6E
T3 sequence (P22607 23-375 limits assumed): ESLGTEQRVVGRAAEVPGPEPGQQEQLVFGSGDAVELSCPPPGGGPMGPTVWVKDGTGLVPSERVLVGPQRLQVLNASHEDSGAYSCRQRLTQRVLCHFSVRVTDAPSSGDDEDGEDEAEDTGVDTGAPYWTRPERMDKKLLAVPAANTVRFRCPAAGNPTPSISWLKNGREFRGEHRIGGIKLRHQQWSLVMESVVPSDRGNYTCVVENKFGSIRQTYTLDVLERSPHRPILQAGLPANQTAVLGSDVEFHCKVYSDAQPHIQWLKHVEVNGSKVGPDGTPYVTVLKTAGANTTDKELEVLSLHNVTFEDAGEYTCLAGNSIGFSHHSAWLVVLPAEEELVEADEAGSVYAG
Protocol: as §1, §2, §3, §4

| Compound | Kd (FGF-R4 ECD) | Kd (FGF-R1C ECD) | Kd (FGF-R3C ECD) |
| --- | --- | --- | --- |
| CC[C@H](C)[C@@H]1NC(=O)[C@H](Cc2ccc(O)cc2)NC(=O)[C@H](Cc2ccc(O)cc2)NC(=O)[C@H](Cc2ccccc2)NC(=O)[C@H](CC(C)C)NC(=O)[C@H](CC(=O)O)NC(=O)[C@H](CCC(=O)O)NC(=O)[C@@H](NC(=O)[C@H](CCSC)NC(C)=O)CSSC[C@@H](C(=O)NCC(=O)N[C@@H](CO)C(=O)NCC(=O)N[C@@H](CO)C(=O)N[C@@H](CC(=O)O)C(=O)N[C@@H](Cc2ccc(O)cc2)C(=O)N[C@@H](CCCCN)C(=O)N[C@@H](CC(=O)O)C(=O)N[C@@H](CC(=O)O)C(=O)N[C@@H](CC(=O)O)C(=O)N[C@@H](CC(=O)O)C(=O)N[C@@H](CCCCN)C(N)=O)NC(=O)CNC(=O)[C@H](Cc2ccc(O)cc2)NC(=O)[C@H](CCCNC(=N)N)NC(=O)[C@H](CC(N)=O)NC(=O)[C@H]([C@@H](C)CC)NC1=O (Ac-MCEDLFYYIINRYGCGSGSDYKDDDDK-NH2; disulfide 2-15) | 0.018 µM | > 10 µM | > 10 µM |
| CSCC[C@H](NC(C)=O)C(=O)N[C@H]1CSSC[C@@H](C(=O)NCC(=O)N[C@@H](CO)C(=O)NCC(=O)N[C@@H](CO)C(=O)N[C@@H](CC(=O)O)C(=O)N[C@@H](Cc2ccc(O)cc2)C(=O)N[C@@H](CCCCN)C(=O)N[C@@H](CC(=O)O)C(=O)N[C@@H](CC(=O)O)C(=O)N[C@@H](CC(=O)O)C(=O)N[C@@H](CC(=O)O)C(=O)N[C@@H](CCCCN)C(N)=O)NC(=O)[C@H](Cc2c[nH]cn2)NC(=O)[C@H](Cc2c[nH]cn2)NC(=O)[C@H](Cc2ccccc2)NC(=O)[C@H](CC(C)C)NC(=O)[C@H](CC(C)C)NC(=O)[C@H](Cc2ccc(O)cc2)NC(=O)[C@H](Cc2ccc(O)cc2)NC(=O)[C@H](Cc2ccccc2)NC(=O)[C@H](CC(C)C)NC(=O)[C@H](CC(=O)O)NC(=O)[C@H](CCC(=O)O)NC1=O (Ac-MCEDLFYYLLFHHCGSGSDYKDDDDK-NH2; disulfide 2-14) | 0.081 µM | 4.54 µM | > 10 µM |
| CSCC[C@H](NC(C)=O)C(=O)N[C@H]1CSSC[C@@H](C(=O)NCC(=O)N[C@@H](CO)C(=O)NCC(=O)N[C@@H](CO)C(=O)N[C@@H](CC(=O)O)C(=O)N[C@@H](Cc2ccc(O)cc2)C(=O)N[C@@H](CCCCN)C(=O)N[C@@H](CC(=O)O)C(=O)N[C@@H](CC(=O)O)C(=O)N[C@@H](CC(=O)O)C(=O)N[C@@H](CC(=O)O)C(=O)N[C@@H](CCCCN)C(N)=O)NC(=O)[C@H](CCC(N)=O)NC(=O)[C@H](CCCNC(=N)N)NC(=O)[C@H](CCCCN)NC(=O)[C@H](C(C)C)NC(=O)[C@H](CC(C)C)NC(=O)[C@H](CC(C)C)NC(=O)[C@H](Cc2ccc(O)cc2)NC(=O)[C@H](Cc2ccc(O)cc2)NC(=O)[C@H](Cc2ccccc2)NC(=O)[C@H](CC(C)C)NC(=O)[C@H](Cc2c[nH]cn2)NC(=O)[C@H](CCC(=O)O)NC1=O (Ac-MCEHLFYYLLVKRQCGSGSDYKDDDDK-NH2; disulfide 2-15) | 0.001 µM | > 10 µM | > 10 µM |
| CSCC[C@H](NC(C)=O)C(=O)N[C@H]1CSSC[C@@H](C(=O)NCC(=O)N[C@@H](CO)C(=O)NCC(=O)N[C@@H](CO)C(=O)N[C@@H](CC(=O)O)C(=O)N[C@@H](Cc2ccc(O)cc2)C(=O)N[C@@H](CCCCN)C(=O)N[C@@H](CC(=O)O)C(=O)N[C@@H](CC(=O)O)C(=O)N[C@@H](CC(=O)O)C(=O)N[C@@H](CC(=O)O)C(=O)N[C@@H](CCCCN)C(N)=O)NC(=O)[C@H](CCC(N)=O)NC(=O)[C@H](CCC(=O)O)NC(=O)[C@H](Cc2c[nH]c3ccccc23)NC(=O)[C@H](Cc2c[nH]cn2)NC(=O)CNC(=O)[C@H](Cc2ccc(O)cc2)NC(=O)[C@@H]2CCCN2C(=O)[C@H](Cc2c[nH]cn2)NC(=O)[C@H](CCCNC(=N)N)NC(=O)[C@H](Cc2c[nH]cn2)NC(=O)[C@H](CCC(=O)O)NC1=O (Ac-MCEHRHPYGHWEQCGSGSDYKDDDDK-NH2; disulfide 2-14) | > 10 µM | > 10 µM | > 10 µM |
| CSCC[C@H](NC(C)=O)C(=O)N[C@H]1CSSC[C@@H](C(=O)NCC(=O)N[C@@H](CO)C(=O)NCC(=O)N[C@@H](CO)C(=O)N[C@@H](CC(=O)O)C(=O)N[C@@H](Cc2ccc(O)cc2)C(=O)N[C@@H](CCCCN)C(=O)N[C@@H](CC(=O)O)C(=O)N[C@@H](CC(=O)O)C(=O)N[C@@H](CC(=O)O)C(=O)N[C@@H](CC(=O)O)C(=O)N[C@@H](CCCCN)C(N)=O)NC(=O)[C@@H]2CCCN2C(=O)[C@H](Cc2ccc(O)cc2)NC(=O)[C@H](Cc2c[nH]c3ccccc23)NC(=O)[C@H](Cc2ccc(O)cc2)NC(=O)[C@H](CC(N)=O)NC(=O)[C@H](CO)NC(=O)[C@H](Cc2c[nH]c3ccccc23)NC(=O)[C@H](CCCNC(=N)N)NC(=O)[C@H](CO)NC(=O)[C@H](CCCNC(=N)N)NC(=O)[C@H](CCC(N)=O)NC(=O)[C@H](CCC(=O)O)NC1=O (Ac-MCEQRSRWSNYWYPCGSGSDYKDDDDK-NH2; disulfide 2-15) | > 10 µM | > 10 µM | > 10 µM |
| CC[C@H](C)[C@@H]1NC(=O)[C@H](CCCCN)NC(=O)[C@H](Cc2ccc(O)cc2)NC(=O)[C@H](Cc2c[nH]c3ccccc23)NC(=O)[C@H]([C@@H](C)CC)NC(=O)[C@H](C(C)C)NC(=O)[C@H](CCC(=O)O)NC(=O)[C@@H](NC(=O)[C@H](CCSC)NC(C)=O)CSSC[C@@H](C(=O)NCC(=O)N[C@@H](CO)C(=O)NCC(=O)N[C@@H](CO)C(=O)N[C@@H](CC(=O)O)C(=O)N[C@@H](Cc2ccc(O)cc2)C(=O)N[C@@H](CCCCN)C(=O)N[C@@H](CC(=O)O)C(=O)N[C@@H](CC(=O)O)C(=O)N[C@@H](CC(=O)O)C(=O)N[C@@H](CC(=O)O)C(=O)N[C@@H](CCCCN)C(N)=O)NC(=O)[C@H](CCCCN)NC(=O)[C@H](CCCNC(=N)N)NC(=O)[C@H](Cc2c[nH]c3ccccc23)NC(=O)[C@H](CCC(N)=O)NC1=O (Ac-MCEVIWYKIQWRKCGSGSDYKDDDDK-NH2; disulfide 2-14) | 0.012 µM | > 10 µM | > 10 µM |
| CC[C@H](C)[C@@H]1NC(=O)[C@H](CC(C)C)NC(=O)[C@H](Cc2ccccc2)NC(=O)[C@H](Cc2ccc(O)cc2)NC(=O)[C@H](CCCCN)NC(=O)[C@H](C(C)C)NC(=O)[C@H](CCC(=O)O)NC(=O)[C@@H](NC(=O)[C@H](CCSC)NC(C)=O)CSSC[C@@H](C(=O)NCC(=O)N[C@@H](CO)C(=O)NCC(=O)N[C@@H](CO)C(=O)N[C@@H](CC(=O)O)C(=O)N[C@@H](Cc2ccc(O)cc2)C(=O)N[C@@H](CCCCN)C(=O)N[C@@H](CC(=O)O)C(=O)N[C@@H](CC(=O)O)C(=O)N[C@@H](CC(=O)O)C(=O)N[C@@H](CC(=O)O)C(=O)N[C@@H](CCCCN)C(N)=O)NC(=O)[C@H](Cc2c[nH]c3ccccc23)NC(=O)[C@H](CCCNC(=N)N)NC(=O)[C@H](CCCCN)NC(=O)[C@H](Cc2c[nH]c3ccccc23)NC1=O (Ac-MCEVKYFLIWKRWCGSGSDYKDDDDK-NH2; disulfide 2-14) | 0.015 µM | 0.65 µM | > 10 µM |
